pEC50, pKi: −log10 of the molar value. Read-outs that look alike come from different tables or passages of the source.
What was measured:
delta opioid receptor = biological target: T1, delta opioid receptor (Rattus norvegicus, UniProt P33533); test: Rat brain delta opioid receptor binding assay
T1 construct: from tissue; host or cells: forebrain of male Wistar rats
Procedure: (§1) Procedure: Male, Wistar rats (150-250 g, VAF, Charles River, Kingston, N.Y.) were killed by CO2, and their brains were removed and placed immediately in ice cold Tris HCl buffer (50 mM, pH 7.4). The forebrains were separated from the remainder of the brain by a coronal transection, beginning dorsally at the colliculi and passing ventrally through the midbrain-pontine junction. After dissection, the forebrains were homogenized in Tris buffer in a Teflon®-glass homogenizer. The homogenate was diluted to a concentration of 1 g of forebrain tissue per 80 mL Tris and centrifuged at 39,000×g for 10 min. The pellet was resuspended in the same volume of Tris buffer containing 5 mM MgCl2 with several brief pulses from a Polytron homogenizer. This particulate preparation was used for the delta opioid binding assays. Following incubation with the delta selective peptide ligand ˜4 nM [^3H]DPDPE or 0.25 nM [^3H]naltrindole at 25° C. for 2.5 h in a 96-well plate with total volume of 1 mL, the plate contents were filtered through Wallac filtermat B sheets on a Tomtec 96-well harvester. The filters were rinsed three times with 2 mL of 10 mM HEPES (pH 7.4), and dried in a 650 W microwave oven for 1.75 min twice. To each sample area 2×50 μL of Betaplate Scint scintillation fluid (LKB) was added and the radioactivity was quantified on a LKB (Wallac) 1205 BetaPlate liquid scintillation counter.
(§2) Analysis: The data from the scintillation counter were used to calculate either the % inhibition compared to control binding (when only a single concentration of test compound was evaluated) or a Ki value (when a range of concentrations was tested). Percent inhibition was calculated as: [(total dpm−test compound dpm)/(total dpm−nonspecific dpm)]*100. Kd and Ki values were calculated using GraphPad PRISM data analysis program.

mu opioid receptor = biological target: T2, mu opioid receptor (Rattus norvegicus, UniProt P33535); test: Rat brain mu opioid receptor binding assay; details: rat forebrain membranes; ~0.8 nM [3H]DAMGO; read-out: μ-binding Ki
T2 construct: from tissue; host or cells: forebrain of male Wistar rats
T2 sequence (P33535 whole entry): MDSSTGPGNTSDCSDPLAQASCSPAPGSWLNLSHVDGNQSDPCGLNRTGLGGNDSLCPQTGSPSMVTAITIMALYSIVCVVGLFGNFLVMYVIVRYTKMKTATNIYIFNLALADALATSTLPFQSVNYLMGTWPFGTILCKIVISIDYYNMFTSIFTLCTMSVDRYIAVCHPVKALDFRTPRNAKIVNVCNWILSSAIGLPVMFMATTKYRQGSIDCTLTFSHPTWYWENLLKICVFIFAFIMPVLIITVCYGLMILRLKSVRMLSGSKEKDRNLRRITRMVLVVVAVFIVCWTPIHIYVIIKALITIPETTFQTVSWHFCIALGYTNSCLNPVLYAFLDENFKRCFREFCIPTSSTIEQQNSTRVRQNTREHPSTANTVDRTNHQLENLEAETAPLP
Procedure: as §1, with “mu” for “delta”, “ligand, ˜0.8” for “ligand ˜4”, “[^3H]DAMGO,” for “[^3H]DPDPE or 0.25 nM [^3H]naltrindole”, “total assay” for “total”, “7.4)” for “7.4),”, “2×40” for “2×50”
as §2

δ-opioid receptor = biological target: T3, δ-opioid receptor (Mus musculus, UniProt P32300); test: [35S]GTPγS binding assay in NG108-15 cell membranes (delta opioid functional assay); type: biochemical; details: for inhibition at 10 µM: 10 μM compound, read-out: GTPγS δ-opioid receptor % Inh @10 μM; for GTPγS δ-RelEfficacy @200 nM: 200 nM compound, relative to calculated max of SNC80 dose response
T3 construct: NG108-15 cell membranes were purchased from Applied Cell Sciences (Rockville, Md.); host or cells: NG108-15 cell membranes (purchased)
T3 sequence (P32300 whole entry): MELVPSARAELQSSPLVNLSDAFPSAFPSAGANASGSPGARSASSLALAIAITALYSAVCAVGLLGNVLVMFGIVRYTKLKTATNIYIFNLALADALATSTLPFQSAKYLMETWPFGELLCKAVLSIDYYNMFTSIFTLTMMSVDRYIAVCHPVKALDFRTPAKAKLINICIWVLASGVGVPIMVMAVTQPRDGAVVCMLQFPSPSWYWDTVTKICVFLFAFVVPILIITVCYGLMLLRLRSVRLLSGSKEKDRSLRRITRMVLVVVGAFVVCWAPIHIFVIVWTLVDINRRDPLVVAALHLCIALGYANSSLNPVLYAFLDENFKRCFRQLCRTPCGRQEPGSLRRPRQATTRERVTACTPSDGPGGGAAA
Procedure: Methods: NG108-15 cell membranes were purchased from Applied Cell Sciences (Rockville, Md.). 5 mg/mL of membrane protein was suspended in 10 mM TRIS-HCl pH 7.2, 2 mM EDTA, 10% sucrose. Membranes were maintained at 4-8° C. A 1 mL volume of membranes was added into 10 mL cold binding assay buffer. The assay buffer contained 50 mM Tris, pH 7.6, 5 mM MgCl2, 100 mM NaCl, 1 mM DTT and 1 mM EGTA. The membrane suspension was homogenized twice with a Polytron, and centrifuged at 3000 rpm for 10 min. The supernatant was then centrifuged at 18,000 rpm for 20 min. Ten mL of assay buffer was added into the pellet containing tube. The pellet and buffer were mixed with a Polytron.
Incubation procedure: The pellet membranes (75 μg/mL) were preincubated with SPA beads (10 mg/mL) at 25° C. for 45 min in the assay buffer. The SPA beads (5 mg/mL) coupled with membranes (37.5 μg/mL) were then incubated with 0.1 nM [^35S]GTPγS in the same Tris buffer containing 100 μM GDP in total volume of 200 μL. 200 nM of receptor agonists was used to stimulate [^35S]-GTPγS binding. The basal binding was tested in the absence of agonists and non-specific binding was tested in the presence of 10 μM unlabeled GTPγS.
Data % of Basal=(stimulated−non specific)*100/(basal−non specific). Relative Efficacy of a compound at 200 nM=(% of Basal of test compound at 200 nM)/(Calculated Max of SNC80 dose response. Curve in prism).

[1] = rat forebrain membranes, ~4 nM [3H]DPDPE, read-out: δ-binding (DPDPE ligand) Ki
[2] = read-out: GTPγS δ-opioid receptor EC50
[3] = [3H]naltrindole ligand, read-out: δ-binding (Naltrindole ligand) Ki

T1 sequence (P33533 whole entry): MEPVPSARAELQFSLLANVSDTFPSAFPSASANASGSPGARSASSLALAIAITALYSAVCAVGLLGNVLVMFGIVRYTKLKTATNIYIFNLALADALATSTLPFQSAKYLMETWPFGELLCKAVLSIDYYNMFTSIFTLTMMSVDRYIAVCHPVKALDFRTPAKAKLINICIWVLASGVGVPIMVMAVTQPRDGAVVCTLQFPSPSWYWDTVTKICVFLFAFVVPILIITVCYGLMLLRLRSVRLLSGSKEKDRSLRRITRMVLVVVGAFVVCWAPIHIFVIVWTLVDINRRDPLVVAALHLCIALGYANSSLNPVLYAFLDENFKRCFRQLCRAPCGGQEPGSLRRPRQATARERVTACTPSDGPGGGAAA

SMILES | pKi (delta opioid receptor; [1]) | pKi (mu opioid receptor) | GTPγS δ-opioid receptor Rel Efficacy (δ-opioid receptor) | inhibition at 10 µM (δ-opioid receptor) [%] | pEC50 (δ-opioid receptor; [2]) | pKi (delta opioid receptor; [3]) | GTPγS δ-RelEfficacy @200 nM (δ-opioid receptor) | pKi (delta opioid receptor) | pEC50 (δ-opioid receptor)
COc1ccc(Oc2nc(-c3ccc(OC)nc3)cnc2NC[C@@H]2CCCN2)cc1 [Cpd 1] | 9.22 | 5.62 | 0.8696 | 6.57 | 7.23 | – | – | – | –
COc1ccc(Oc2nc(-c3cccnc3)cnc2NC[C@@H]2CCCN2)cc1 [Cpd 2, [3-(4-Methoxy-phenoxy)-5-pyridin-3-yl-pyrazin-2-yl]-pyrrolidin-2-(S)-ylmethyl-amine] | 8.68 | 6.09 | 1.0430 | 1 | 7.53 | – | – | – | –
COc1ccc(Oc2nc(C#Cc3cccnc3)cnc2NC[C@@H]2CCCN2)cc1 [Cpd 3, [3-(4-Methoxy-phenoxy)-5-pyridin-3-ylethynyl-pyrazin-2-yl]-pyrrolidin-2-(S)-ylmethyl-amine] | 8.82 | 5.49 | 1.0797 | 1 | 7.34 | – | – | – | –
COCC#Cc1cnc(NC[C@@H]2CCCN2)c(Oc2ccc(OC)cc2)n1 [Cpd 4] | 8.72 | 5.30 | 0.9477 | 1 | 7.08 | – | – | – | –
COc1ccc(Oc2nc(-c3cncnc3)cnc2NC[C@@H]2CCCN2)cc1F [Cpd 8] | 9.10 | 6.70 | 1.0302 | – | 6.83 | – | – | – | –
COc1ccc(Oc2nc(-c3cncc(C#N)c3)cnc2NC[C@@H]2CCCN2)cc1F [Cpd 25] | – | – | 1.0387 | – | 7.50 | 9.70 | 0.9130 | – | –
COc1ccc(Oc2nc(-c3cncc(C#N)c3)cnc2NC[C@@H]2CCCN2)c(F)c1 [Cpd 26] | – | – | 1.0534 | – | 7.57 | 9.70 | 1.0180 | – | –
N#CCc1ccc(Oc2nc(-c3cncc(C#N)c3)cnc2NC[C@@H]2CCCN2)cc1 [Cpd 27] | – | – | 1.0035 | – | 7.47 | 8.19 | 0.9179 | – | –
Cc1ccc(Oc2nc(-c3cncc(C#N)c3)cnc2NC[C@@H]2CCCN2)cn1 [Cpd 28] | – | – | – | – | – | 7.88 | 0.1492 | – | –
N#Cc1cncc(-c2cnc(NC[C@@H]3CCCN3)c(Oc3ccc(OC(F)F)cc3)n2)c1 [Cpd 29] | – | – | – | – | – | 9.52 | 0.0000 | – | –
COc1ccc(Oc2nc(-c3cncc(C#N)c3)cnc2N2CCNCC2)cc1 [Cpd 30, 5-[3′-(4-Methoxy-phenoxy)-3,4,5,6-tetrahydro-2H-[1,2′]bipyrazinyl-5′-yl]-nicotinonitrile] | – | – | 1.1345 | – | 6.95 | 10.00 | 0.5999 | – | –
COc1ccc(Oc2nc(-c3cccnc3)cnc2N2CCNCC2)cc1 [Cpd 31] | – | – | 1.0012 | – | 8.09 | 9.52 | 0.7579 | – | –
COc1ccc(Oc2nc(-c3cncc(C#N)c3)cnc2N[C@H]2CC[C@@H](N)CC2)cc1 [Cpd 35] | – | – | 1.2053 | – | – | – | 0.4157 | 9.40 | 7.02
N#Cc1cncc(-c2cnc(NC[C@@H]3CCCN3)c(Oc3ccc(OC(F)(F)F)cc3)n2)c1 [Cpd 36] | – | – | 0.9719 | – | 7.53 | 8.85 | 0.5598 | – | –
CCc1ccc(Oc2nc(-c3cncc(C#N)c3)cnc2NC[C@@H]2CCCN2)cc1 [Cpd 37] | – | – | – | – | – | 9.30 | 0.3353 | – | –
N#Cc1cncc(-c2cnc(NC[C@@H]3CCCN3)c(Oc3cccc(O)c3)n2)c1 [Cpd 38, 5-{6-(3-Hydroxy-phenoxy)-5-[(pyrrolidin-2-(S)-ylmethyl)-amino]-pyrazin-2-yl}-nicotinonitrile] | – | – | 1.1104 | – | 7.18 | 10.07 | 0.6472 | – | –
N#Cc1cncc(-c2cnc(NC[C@@H]3CCCN3)c(Oc3ccc4occc4c3)n2)c1 [Cpd 39] | – | – | 1.0736 | – | 8.34 | 9.70 | 1.0765 | – | –

Source: patent publication US8183371B2, “Pyrazines as delta opioid receptor modulators” (Janssen Pharmaceutica NV, priority 2009, dated 2012)
